Data on three compounds can be found in patent US9242995B2, “Isoxazolopyridine orexin receptor antagonists” (MERCK SHARP & DOHME CORP., priority 2011, dated 2016).

In the test the target is human orexin-2 receptor (Homo sapiens (Human), UniProt O43614). The experiment in a line: radioligand binding assay, hOX2 Bind. To be noted: membranes prepared from CHO cells expressing the OX2 receptor; read-out: hOX2 Bind hKi. The method, then: The utility of the compounds in accordance with the present invention as orexin receptor OX1R and/or OX2R antagonists may be readily determined without undue experimentation by methodology well known in the art, including the “FLIPR Ca^2+ Flux Assay” (Okumura et al., Biochem. Biophys. Res. Comm. 280:976-981, 2001). In a typical experiment the OX1 and OX2 receptor antagonistic activity of the compounds of the present invention was determined in accordance with the following experimental method. For intracellular calcium measurements, Chinese hamster ovary (CHO) cells expressing the rat orexin-1 receptor or the human orexin-2 receptor, are grown in Iscove's modified DMEM containing 2 mM L-glutamine, […], 1% hypoxanthine-thymidine supplement, 100 U/ml penicillin, 100 μg/ml streptomycin and 10% heat-inactivated fetal calf serum (FCS). The cells are seeded at 20,000 cells/well into Becton-Dickinson black 384-well clear bottom sterile plates coated with poly-D-lysine. All reagents were from GIBCO-Invitrogen Corp. The seeded plates are incubated overnight at 37° C. and 5% CO2. […] Within the Fluorescent Imaging Plate Reader (FLIPR, Molecular Devices), test compounds are added to the plate in a volume of […] for 5 min and finally 25 μl of agonist is added. Fluorescence is measured for each well at 1 second intervals for 5 minutes and the height of each fluorescence peak is compared to the height of the fluorescence peak induced by 70 pM Ala-6,12 orexin-A with buffer in place of antagonist. […] Alternatively, compound potency can be assessed by a radioligand binding assay (described in Bergman et. al. Bioorg. Med. Chem. Lett. 2008, 18, 1425-1430) in which the inhibition constant (Ki) is determined in membranes prepared from CHO cells expressing either the OX1 or OX2 receptor. The intrinsic orexin receptor antagonist activity of a compound which may be used in the present invention may be determined by these assays. […]
Chain of human orexin-2 receptor (O43614 whole entry): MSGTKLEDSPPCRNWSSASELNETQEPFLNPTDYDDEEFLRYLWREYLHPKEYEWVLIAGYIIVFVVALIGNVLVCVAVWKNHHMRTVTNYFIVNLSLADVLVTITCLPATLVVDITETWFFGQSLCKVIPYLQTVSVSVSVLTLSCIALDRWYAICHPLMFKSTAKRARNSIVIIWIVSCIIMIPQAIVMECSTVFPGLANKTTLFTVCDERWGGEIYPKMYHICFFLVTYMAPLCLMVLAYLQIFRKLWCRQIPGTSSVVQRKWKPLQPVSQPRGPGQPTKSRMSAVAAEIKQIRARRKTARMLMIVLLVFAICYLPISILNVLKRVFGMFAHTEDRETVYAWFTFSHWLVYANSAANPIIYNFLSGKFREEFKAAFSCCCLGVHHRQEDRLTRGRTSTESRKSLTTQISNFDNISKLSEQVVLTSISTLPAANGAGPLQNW
Turning to `COc1ccc(CNC(=O)c2cc(-c3cncc(Br)c3)nc3onc(-c4ccccc4)c23)nc1OC` [Example 1-8, 6-(5-bromopyridin-3-yl)-N-[(5,6-dimethoxypyridin-2-yl)methyl]-3-phenylisoxazolo[5,4-b] pyridine-4-carboxamide], the Ki came to 3.8 nM.

Take `COc1ccc(CNC(=O)c2cc(-c3cncc(C)c3)nc3onc(-c4ccccc4)c23)cc1OC` [Example 1-12, N-(3,4-dimethoxybenzyl)-6-(5-methylpyridin-3-yl)-3-phenylisoxazolo[5,4-b]pyridine-4-carboxamide]: the Ki was 10.8 nM.

With `COc1cc(C)c(CNC(=O)c2cc(-c3cncc(C)c3)nc3onc(-c4cccs4)c23)nc1OC` [Example 1-21, N-[(5,6-dimethoxy-3-methylpyridin-2-yl)methyl]-6-(5-methylpyridin-3-yl)-3-(thiophen-2-yl)isoxazolo[5,4-b]pyridine-4-carboxamide], the Ki worked out at 0.7 nM.
